We go through four molecules from ChEMBL document CHEMBL1127057, “Synthesis, optical resolution, absolute configuration, and preliminary pharmacology of (+)- and (-)-cis-2,3,3a,4,5,9b-hexahydro-1-methyl-1H- pyrrolo-[3,2-h]isoquinoline, a structural analog of nicotine” (J Med Chem, 1993).

A short description of experiment [1]: Binding affinity was evaluated towards nicotine receptor in mouse brain. The experiment is classed as tissue-based.
The species named for experiment [2] is Mus musculus. In words: Inhibition of spontaneous activity in mice. Format: functional.
Experiment [3] is filed under the species Mus musculus. In words: Inhibition of tail-flick response (antinociception) in mice. Format: functional.
Experiment [4] is filed under the species Mus musculus. In words: Equilibrium dissociation constant (Kd) was determined.

As usually defined, the Ki is the dissociation constant of the complex between target and ligand, obtained from inhibition or displacement. Low readings indicate higher affinity, high ones lower affinity. One may read the ED50 as the midpoint of the dose-response relation. In experiment [1], `CN1CCC2CCc3ccncc3C21` (single isomer, unassigned; (-)) showed a Ki of 0.605 µM. Moreover, in the experiment filed under Mus musculus [2], the median effective dose (ED50) is 61.7 µmol/kg.

Broadly, the Kd is the concentration at which binding is half-saturated. A lower Kd goes with higher affinity. `CN1CCC[C@H]1c1cccnc1` [NICOTINE]: the ED50 in the experiment filed under Mus musculus [3] amounted to 4.81 µmol/kg; in the experiment listed under Mus musculus [2], 4.44 µmol/kg. Also, in the experiment listed under Mus musculus [4], the Kd worked out at 0.00141 µM.

On to `c1cc2c(cn1)C1NCCC1CC2` (racemic), for which the ED50 in the experiment filed under Mus musculus [3] was determined as 25.7 µmol/kg; in the experiment listed under Mus musculus [2] it was 24.8 µmol/kg. Moreover, the affinity in experiment [1] corresponds to a Ki of 0.167 µM.

Turning to `CN1CCC2CCc3ccncc3C21` (single isomer, unassigned; (+)), the median effective dose (ED50) in the experiment filed under Mus musculus [3] was 7.45 µmol/kg; in the experiment filed under Mus musculus [2], 7.13 µmol/kg.
